Our source for the IC50 and EC50 values is US20220153732A1, “PROTEIN SECRETION INHIBITORS” (KEZAR LIFE SCIENCES, priority 2019, published 2022).

Like-named read-outs stand apart in the source and are kept apart here. Some results are limits rather than exact numbers.

What all share (assay type): cell-based
The test system of assay [1] is PD1-ss+10aa/Gaussia Luciferase. Briefly: Dox-Induced PD1-ss-Gluc Assay. The method, boiled down:
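Compounds, diluted in DMSO/media with doxycycline, were added to cells plated a day earlier and kept at 37° C under 5% CO2. The cells stably express a Gaussia luciferase construct fused to PD1-ss+10aa, induced via the T-REx system. Unassigned stereochemistry means mixture data.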

The test system of assay [2] is HER3-ss+4aa/Gaussia Luciferase. Briefly: Dox-Induced Her3-ss-Gluc Assay. The essentials: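 Compounds, diluted in DMSO/media containing doxycycline, were incubated at 37° C., 5% CO2 with cells seeded one day earlier. The cells stably express HER3-ss+4aa/Gaussia luciferase under T-REx control. Where no stereochemistry is shown, data refer to the mixture of stereoisomers.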

Assay [3] relates to human multiple myeloma cell line NCI-H929. Briefly: H929 Cell Viability Assay. The note with it: 48 hr, NCI-H929 cells, Celltiter-Glo, read-out: 48 hr H929 Viability Celltiter-Glo: Mean EC50. On the procedure:
Plates were incubated at 37° C., 5% CO2 for 48 hours. After 48 hours, Celltiter-Glo® (Promega) was added to each well and luciferase signal was quantified using Tecan Infinite M1000 Pro for cell viability determination.
For chemical structures that include one or more stereoisomers, but are illustrated without indicating stereochemistry, the assay data refers to a mixture of stereoisomers.

Assay [4] concerns IL-2-FL/Gaussia Luciferase. Briefly: Dox Induced IL2-FL-Gluc Assay. The essentials:
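Compounds were added together with doxycycline in DMSO/media and incubated at 37° C., 5% CO2. The cells were a stably selected line carrying IL-2-FL/Gaussia luciferase under T-REx inducible control. Structures drawn without stereochemistry were tested as stereoisomer mixtures.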

Assay [5] relates to human multiple myeloma cell line U266B1. Briefly: U266 Cell Viability Assay. The note with it: U-266, 48 hr, U266B1 cells, Celltiter-Glo, read-out: 48 hr U266 Viability Celltiter-Glo: Mean EC50. The essentials:
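Viability measured by CellTiter-Glo luciferase signal after 48 h compound exposure (37 °C, 5% CO2) of U266B1 cells in 384-well format. Where stereochemistry is not shown, data refer to the stereoisomer mixture.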

For assay [6], the system named is TNFα-FL/Gaussia Luciferase. Briefly: Dox Induced TNFα-FL-Gluc Assay. The method, boiled down: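 Compounds were added in doxycycline-containing DMSO/media to cells plated the previous day and incubated at 37° C under 5% CO2. These cells stably express a TNFα-FL/Gaussia luciferase cDNA whose expression is under T-REx (Dox-inducible) control, selected with Hygromycin and Blasticidin.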

The mark [7] stands for this setting: 24 hr, doxycycline-induced, 293FRT/TO cells; read-out: 24 hr Dox Inducible PD1ssGluc 293FRT/TO: Mean IC50.
The mark [8] stands for this setting: 24 hr, doxycycline-induced, 293FRT/TO cells; read-out: 24 hr Dox Inducible Her3(ss + 4)Gluc 293FRT/TO: Mean IC50.
Where [9] appears, read: 24 hr, doxycycline-induced, 293FRT/TO cells; read-out: 24 hr Dox Inducible IL2FLGIuc 293FRT/TO: Mean IC50.
The mark [10] stands for this setting: 24 hr, doxycycline-induced, 293FRT/TO cells; read-out: 24 hr Dox Inducible TNFaFLGluc 293FRT/TO: Mean IC50.
Where [11] appears, read: read-out: 24 hr Dox Inducible PD1ssGluc 293FRT/TO: Mean IC50; 24 hr, doxycycline-induced, 293FRT/TO cells.
Setting [12] is: read-out: 24 hr Dox Inducible Her3(ss + 4)Gluc 293FRT/TO: Mean IC50; 24 hr, doxycycline-induced, 293FRT/TO cells.
The mark [13] stands for this setting: read-out: 24 hr Dox Inducible IL2FLGIuc 293FRT/TO: Mean IC50; 24 hr, doxycycline-induced, 293FRT/TO cells.
Where [14] appears, read: read-out: 24 hr Dox Inducible TNFaFLGluc 293FRT/TO: Mean IC50; 24 hr, doxycycline-induced, 293FRT/TO cells.

In the case of `CC(C)O[C@@H]1CC(c2csc(NC(=O)c3cccn3Cc3ccncc3)n2)N(c2ccccc2)C1` (stereo partly drawn) [Compound A346], the IC50 in assay [1] (setting [7]) is 0.017 µM; in assay [2] (setting [8]), 0.022 µM; in assay [4] (setting [9]), 0.02 µM; in assay [6] (setting [10]) it was 0.092 µM. Further, the figures for the EC50 in assay [3] and in assay [5] were 0.972 µM and above 25 µM, respectively.

As to `Cc1cccnc1/C=C/c1csc(NC(=O)c2cccn2Cc2ccncc2)n1` [Compound A347], the IC50 in assay [1] (setting [7]) was 0.042 µM; in assay [2] (setting [8]), 6.01 µM; in assay [4] (setting [9]) it was 9.58 µM; in assay [6] (setting [10]), 13.1 µM. Further, the values for the EC50 in assay [3] and in assay [5] were 23.8 µM and 20.3 µM, respectively.

Consider `CC(C)OC(C)(C)c1csc(NC(=O)c2sccc2-c2ccncc2)n1` [Compound A348], for which the IC50 in assay [1] (setting [7]), in assay [2] (setting [8]), in assay [4] (setting [9]) and in assay [6] (setting [10]) was above 25 µM each time. Also, the EC50 in assay [3] turned out to be 17 µM; in assay [5] it was 18.3 µM.

Regarding `O=C(Nc1nc([C@H]2C[C@@H](c3ccccn3)C2)cs1)c1cccn1Cc1ccncc1` [Compound A349], the IC50 in assay [1] (setting [7]) is 0.364 µM; in assay [2] (setting [8]), 1.26 µM; in assay [4] (setting [9]), 1.7 µM; in assay [6] (setting [10]), 6.62 µM. The EC50 in assay [3] was 12.5 µM; in assay [5], above 25 µM.

For `O=C(Nc1nc([C@H]2C[C@H](c3ccccn3)C2)cs1)c1cccn1Cc1ccncc1` [Compound A350], the IC50 in assay [1] (setting [7]) is 0.707 µM; in assay [2] (setting [8]), 2.39 µM; in assay [4] (setting [9]), above 25 µM; in assay [6] (setting [10]), 14.9 µM. Further, the EC50 in assay [3] and in assay [5] was above 25 µM in each case.

For `O=C(Nc1nc([C@H]2[C@H](O)CCN2c2ccccc2)cs1)c1cccn1Cc1ccncc1` [Compound A351], the IC50 in assay [1] (setting [7]) came out at 0.167 µM; in assay [2] (setting [8]), 0.45 µM; in assay [4] (setting [9]), 0.259 µM; in assay [6] (setting [10]), 0.954 µM. For the same compound, the EC50 in assay [3] is 7.5 µM; in assay [5] it was above 25 µM.

As to `CC(C)(C)[Si](O[C@@H]1CCN(c2ccccc2)[C@@H]1c1csc(NC(=O)c2cccn2Cc2ccncc2)n1)(c1ccccc1)c1ccccc1` [Compound A352], the IC50 was 0.008 µM in assay [1] (setting [11]), 0.019 µM in assay [2] (setting [12]), 0.016 µM in assay [4] (setting [13]) and 0.062 µM in assay [6] (setting [14]). Moreover, the concentration for a half-maximal effect (EC50) in assay [3] is 0.452 µM; in assay [5], above 25 µM.

As for `CC(C)(C)[Si](O[C@H]1CCN(c2ccccc2)[C@@H]1c1csc(NC(=O)c2cccn2Cc2ccncc2)n1)(c1ccccc1)c1ccccc1` [Compound A353], the IC50 in assay [1] (setting [11]) amounted to 0.005 µM; in assay [2] (setting [12]), 0.012 µM; in assay [4] (setting [13]) it was 0.011 µM; in assay [6] (setting [14]), 0.013 µM. Moreover, the EC50 is 0.303 µM in assay [3] and above 25 µM in assay [5].

Regarding `O=C(Nc1nc([C@H]2C[C@@H](OC3CCCCC3)CN2c2ccccc2)cs1)c1cccn1Cc1ccncc1` [Compound A354], the IC50 was determined as 0.006 µM in assay [1] (setting [7]), 0.016 µM in assay [2] (setting [8]), 0.021 µM in assay [4] (setting [9]) and 0.054 µM in assay [6] (setting [10]). Also, the EC50 was 0.901 µM in assay [3] and above 25 µM in assay [5].

For the compound `Cc1cccc(/C=C\c2csc(NC(=O)c3cccn3Cc3ccncc3)n2)n1` [Compound A355], the IC50 in assay [1] (setting [7]) came to 0.524 µM; in assay [2] (setting [8]) it was 3.81 µM; in assay [4] (setting [9]), 11.3 µM; in assay [6] (setting [10]), 9.74 µM. Moreover, the EC50 in assay [3] stood at 22.3 µM; in assay [5] it was 17.2 µM.

`Cc1cccc(/C=C/c2csc(NC(=O)c3cccn3Cc3ccncc3)n2)n1` [Compound A356]: the IC50 in assay [1] (setting [7]) is 0.035 µM; in assay [2] (setting [8]), 5.41 µM; in assay [4] (setting [9]), above 25 µM; in assay [6] (setting [10]), 14.4 µM. Besides, the EC50 in assay [3] is above 25 µM; in assay [5], 23.8 µM.

`Cc1ccc(/C=C/c2csc(NC(=O)c3cccn3Cc3ccncc3)n2)nc1` [Compound A357]: the IC50 in assay [1] (setting [7]) is 0.012 µM; in assay [2] (setting [8]), 2.31 µM; in assay [4] (setting [9]), 9.07 µM; in assay [6] (setting [10]), 7.48 µM. In addition, the EC50 in assay [3] is 10.7 µM; in assay [5] it was 17.9 µM.

With `O=C(Nc1nc(/C=C/c2ncc(F)cc2F)cs1)c1cccn1Cc1ccncc1` [Compound A358], the IC50 in assay [1] (setting [7]) is 0.029 µM; in assay [2] (setting [8]), 0.443 µM; in assay [4] (setting [9]), 0.765 µM; in assay [6] (setting [10]) it was 3.57 µM. Also, the results for the EC50 in assay [3] and in assay [5] were 17.9 µM and above 25 µM, respectively.

`O=C(Nc1nc([C@H]2CCCN2c2ccc3c(c2)OCO3)cs1)c1cccn1Cc1ccncc1` [Compound A359]: the IC50 in assay [1] (setting [7]) came out at 0.011 µM; in assay [2] (setting [8]), 0.013 µM; in assay [4] (setting [9]) it was 0.015 µM; in assay [6] (setting [10]), 0.083 µM. The EC50 in assay [3] was 0.382 µM; in assay [5], above 25 µM.

As for `O=C(Nc1ncc(Cl)s1)c1cccn1Cc1ccncc1` [Compound B1], the IC50 in assay [1] (setting [7]) was 1.89 µM; in assay [2] (setting [8]), 4.32 µM; in assay [4] (setting [9]), 6.29 µM; in assay [6] (setting [10]) it was above 25 µM. The EC50 in assay [3] and in assay [5] was above 25 µM each time.

Regarding `C=Cc1csc(NC(=O)c2cccn2Cc2ccncc2)n1` [Compound B2], the IC50 in assay [1] (setting [7]) was 1.97 µM; in assay [2] (setting [8]), 12.1 µM; in assay [4] (setting [9]), 8.42 µM; in assay [6] (setting [10]), above 25 µM. Moreover, the EC50 in assay [3] and in assay [5] was above 25 µM each time.

Regarding `Cc1ccc(S(=O)(=O)CCOC(C)(C)c2csc(NC(=O)c3cccn3Cc3ccncc3)n2)cc1` [Compound B3, 1-(pyridin-4-ylmethyl)-N-(4-(2-(2-tosylethoxy)propan-2-yl)thiazol-2-yl)-1H-pyrrole-2-carboxamide], the IC50 was 2.84 µM in assay [1] (setting [7]), 4.24 µM in assay [2] (setting [8]), 2.93 µM in assay [4] (setting [9]) and above 25 µM in assay [6] (setting [10]). For the same compound, the EC50 in assay [3] and in assay [5] was above 25 µM in each case.

Take `CC(C)(C)c1cc(NC(=O)c2cccn2Cc2ccncc2)no1` [Compound B4, N-(5-(tert-butyl)isoxazol-3-yl)-1-(pyridin-4-ylmethyl)-1H-pyrrole-2-carboxamide]: the IC50 in assay [1] (setting [7]) is 3.02 µM; in assay [2] (setting [8]) it was 11.2 µM; in assay [4] (setting [9]), 22.5 µM; in assay [6] (setting [10]), above 25 µM. In addition, the EC50 in assay [3] and in assay [5] was above 25 µM in each case.

On to `CC(C)c1coc(NC(=O)c2cccn2Cc2ccncc2)n1` [Compound B5, N-(4-isopropyloxazol-2-yl)-1-(pyridin-4-ylmethyl)-1H-pyrrole-2-carboxamide], for which the IC50 in assay [1] (setting [7]) is 3.24 µM; in assay [2] (setting [8]), 12.6 µM; in assay [4] (setting [9]), 10.6 µM; in assay [6] (setting [10]), above 25 µM. For the same compound, the EC50 in assay [3] and in assay [5] was above 25 µM in each case.

On to `O=C(Nc1nccs1)c1cccn1Cc1ccncc1` [Compound B6], for which the IC50 in assay [1] (setting [7]) is 6.66 µM; in assay [2] (setting [8]), above 25 µM; in assay [4] (setting [9]) it was above 25 µM; in assay [6] (setting [10]), above 25 µM. Also, the EC50 in assay [3] and in assay [5] was above 25 µM each time.

For the compound `CCc1nc(NC(=O)c2cccn2Cc2ccccc2Cl)sc1C` [Compound B7, 1-(2-chlorobenzyl)-N-(4-ethyl-5-methylthiazol-2-yl)-1H-pyrrole-2-carboxamide], the IC50 in assay [1] (setting [7]) was 9.07 µM; in assay [2] (setting [8]), 20 µM; in assay [4] (setting [9]) it was 24.3 µM; in assay [6] (setting [10]), above 25 µM. Moreover, the EC50 in assay [3] and in assay [5] was above 25 µM in each case.

Take `Cc1cc(NC(=O)c2cccn2Cc2ccncc2)no1` [Compound B8, N-(5-methylisoxazol-3-yl)-1-(pyridin-4-ylmethyl)-1H-pyrrole-2-carboxamide]: the IC50 was 9.1 µM in assay [1] (setting [7]), above 25 µM in assay [2] (setting [8]), above 25 µM in assay [4] (setting [9]) and above 25 µM in assay [6] (setting [10]). Besides, the EC50 in assay [3] and in assay [5] was above 25 µM in each case.
